Assay results as given in US20030095979A1, “Pharmaceutical preparations comprising modified peptides” (Cistem Biotechnologies GMBH, priority 2001, published 2003).

Experiments:
Set-up in all cases: species or system mice (C57BL/6)
[1] = test system: specific IFN-γ-producing T cells; experiment: Example 2: mice vaccinated subcutaneously in the footpad 3 times, lymph node cells and splenocytes activated ex vivo with SIINFEKL, IFN-γ ELISpot assay; conditions: in combination with 100 μg poly-L-arginine; 100 μg peptide s.c. footpad days 0, 14, 28; one week after 3rd vaccination
Method: Groups of 4 mice (C57BL/6, female, 6 weeks of age, II-2^b) were injected subcutaneously in the footpad 3 times (days 0, 14, 28) as follows (dose 100 ug of peptide, molarity adapted; +100 μg poly-L-arginine per mouse):
Groups of 4 mice were vaccinated subcutaneously in the footpad 3 times as indicated. One week after the 3rd vaccination, popliteal lymph nodes and spleens were removed and lymph node cells and splenocytes were activated ex vivo with peptide SIINFEKL (“245”) to determine IFN-y-producing specific cells (ELISpot assay).

[2] = test system: SIINFEKL specific IFN-γ-producing T cells; experiment: Example 1: mice vaccinated subcutaneously in the flank 3 times, splenocytes activated ex vivo with SIINFEKL, IFN-γ ELISpot assay; conditions: for peptide specific T cells induced: without adding poly-L-arginine, 100 μg peptide s.c. flank days 0, 21, 28, spleen one week after third vaccination
Method: Groups of 4 mice (C75BL/6, femal, 8 weeks of age, H-2^b were injected subcutaneoulsy in the flank 3 times (days 0, 21 and 28) as follows (dose 100 μg of peptide, molarity adapted; +/−100 μg poly-L-arginine per mouse):
One week after the third vaccination spleens were removed and the splenocytes were activated ex vivo with peptide SIINFEKL (“245”) to determine IFN-y-producing specific cells (ELISpot assay).

[3] = test system: SIINFEKL-specific IFN-γ-producing T cells; experiment: Example 3: mice vaccinated subcutaneously in the hind footpads, spleen cells restimulated ex vivo, IFN-γ ELISpot assay; conditions: in combination with 100 μg poly-L-arginine; 100 μg peptide s.c. hind footpads; spleen 7 days after vaccination
Method: Groups of 4 mice (C57BL/6, female, 8 weeks of age, H-2^b) were injected subcutaneously into the hind footpads as follows (dose 100 μg of peptide, molarity adapted; +100 μg poly-L-arginine per mouse):
Groups of 4 mice were vaccinated subcutaneously in the hind footpads as indicated. 7 days after the vaccination single cell suspensions of spleens were prepared and cells were restimulated ex vivo to detect IFN-γ-producing cells via ELISpot assay.

| Sequence | peptide specific T cells induced [2] | induction of SIINFEKL-specific IFN-γ-producing T cells [3] | other results |
| --- | --- | --- | --- |
| EDEDSIINFEKL [SIINFEKL with EDED added at the N-terminus] | – | – | induction of specific IFN-γ-producing T cells in the draining (popliteal) lymph node (local response) [1]: high amount; induction of specific IFN-γ-producing T cells in the spleen (systemic response) [1]: high amount |
| FIFIFISIINFEKL [SIINFEKL with FIFIFI added at the N-terminus] | about 100 per 1 million spleen cells | – | – |
| FIFISIINFEKL [SIINFEKL with FIFI added at the N-terminus] | about 100 per 1 million spleen cells | high numbers | – |
| SIINFEKL [ovalbumin derived class I H-2Kb restricted peptide, unmodified wild type, reference compound] | – | – | induction of T cells (general statement) ([2]; alone or in combination with an adjuvant like poly-L-arginine): weak inducer of T cells |
| SIINFEKLFIFI [SIINFEKL with FIFI added at the C-terminus] | – | high numbers | – |
